# Experiments:
# [1] = tested on: controlled cortical impact TBI at p21; test: Acute cell death (TUNEL, activated caspase-3) at 48 h after TBI at p21; format: in vivo, male C57Bl/6J mice; details: 48 h post-injury; 25 mg/kg s.c.
# Experimental: The controlled cortical impact model of TBI was used as previously described. TBI to the p21 mouse approximates a toddler-aged child, based upon the structural, biochemical and behavioral characteristics of this age. Pups were anaesthetized with 1.25% 2,2,2-tribromoethanol (Avertin; Sigma-Aldrich, St. Louis, MO) in isotonic saline (i.p. bolus at 0.02 mL/g body weight). After craniotomy, mice were subjected to a controlled cortical impact at 4.5 m/s velocity and 1.73 mm depth of penetration, for a sustained depression of 150 ms, using a 3.0 mm convex impactor tip. Mice were maintained on a water-circulating heating pad throughout surgery and recovery. Following impact, the scalp was closed with sutures and each animal administered 0.5 ml of isotonic saline subcutaneously (s.c.) to prevent post-operative dehydration. […] All mice were closely monitored for 1–2 hours post-surgery until return of the righting reflex and full mobilization. […]
# Brain injured animals and sham controls were euthanized at 2 d post-injury. Dying cells were detected by double-labeling for terminal deoxynucleotidyl transferase-mediated dUTP nick 3’-end labeling (TUNEL) in combination with immunofluorescence for activated (cleaved) caspase-3, a hallmark of apoptosis. […] Immuno-positive cells with DAPI-positive nuclei were counted using Metamorph analysis software (Molecular Devices, Sunnyvale, CA).
# [2] = biological target: MMP-2; details: cited from earlier work
structure (smiles),measurement,setting,value
O=S(=O)(CC1CS1)c1ccc(Oc2ccc(O)cc2)cc1 (stereo not drawn) [p-OH SB-3CT],cell death by TUNEL staining compared to vehicle-treated controls,[1],A similar degree of cell death
same,cell death by activated caspase-3 compared to vehicle-treated controls,[1],A similar degree of cell death
same,Ki,[2],6 ± 3 nM
